# Measurements taken from ChEMBL document CHEMBL1201862, “PubChem BioAssay data set” (2004).
# Calls of active or inactive are those of the source.
# Columns and labels:
# [1] = Dd2 parasite growth inhibition in erythrocytes – SYBR Green, dry powder samples, set 9, dose response (AID 1159568); assay type: functional, cell-based
# [2] = Trypanosoma cruzi growth suppression in host cells – NIH3T3 host cells, beta-gal luminescence, confirmation (AID 2044); assay type: functional, cell-based;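 note: intracellular parasites grown in NIH/3T3 mouse fibroblasts as host cells; luminescent beta-galactosidase reporter signal from transgenic T. cruzi replicating inside host cells; inhibitors lower the luminescence signal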
# Transthyretin = Transthyretin (Homo sapiens, UniProt P02766); experiment: Luminescence-based cell-based high throughput dose response assay to identify activators of Transthyretin (TTR) transcription.; assay type: functional
# [3] = NIH3T3 cell viability loss – ATP luminescence, mouse fibroblasts, counter-screen, dose response (AID 2010); assay type: functional, cell-based;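 note: cells exposed to compound for about 90 hours before reading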
# [4] = viability loss in Vero cells – cytotoxicity control for Vif-APOBEC3G degradation inhibitor project, dose response (AID 1117358); assay type: functional; details: Vero
# [5] = biological target: Induced myeloid leukemia cell differentiation protein Mcl-1 (Homo sapiens, UniProt Q07820); assay type: functional
# [6] = CCR5-tropic HIV-1 fusion blockers – cell-based, CCR5-tropic Env, dose response (AID 2279); assay type: functional
# [7] = microbe, parasite or virus in culture; assay type: functional; details: Mycobacterium tuberculosis
# [8] = M. tuberculosis growth inhibition, HTS (AID 449762); assay type: functional
# [9] = biological target: E3 ubiquitin-protein ligase Mdm2 (Homo sapiens, UniProt Q00987); experiment: MDM2-luc reporter signal enhancers, multi-concentration potency testing, MDM2 ubiquitin-protein ligase inhibitor program, whole-cell format, luminescence detection, 384-well microplate (AID 1394); assay type: functional;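 note: MDM2 E3 inhibitors raise luminescence so EC50 is for signal enhancement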
# NADPH oxidase 1 = NADPH oxidase 1 (Homo sapiens, UniProt Q9Y5S8); assay type: functional, cell-based;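 note: Cell-based assay with luminescence read-out, IC50 derived from inhibitor dose-response curves; intracellular ROS from endogenous NOX1 in intact HT29 colon cancer cells; potency of inhibitors that lower the ROS luminescence signal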
# [10] = biological target: Peroxisome proliferator-activated receptor gamma/Nuclear receptor corepressor 2 (Homo sapiens, UniProt P37231+Q9Y618); experiment: Counterscreen for NR2E3 inverse agonists: TR-FRET-based biochemical high throughput dose response assay to identify inverse agonists of the interaction between peroxisome proliferator-activated receptor gamma (PPARg) and nuclear receptor co-repressor 2 (NCOR2).; assay type: functional
# [11] = biological target: Photoreceptor-specific nuclear receptor (Homo sapiens, UniProt Q9Y5X4); experiment: ligands suppressing NR2E3 nuclear receptor activity – biochemical, TR-FRET, dose response (AID 463256); assay type: functional
# [12] = biological target: G-protein coupled receptor 55 (Homo sapiens, UniProt Q9Y2T6); experiment: selective activators of receptor GPR55 – imaging, U2OS cells, beta-arrestin-GFP redistribution, primary screen (AID 1961); assay type: functional
# [13] = biological target: Mitogen-activated protein kinase 10 (Homo sapiens, UniProt P53779); experiment: Dose response biochemical screening assay for inhibitors of c-Jun N-Terminal Kinase 3 (JNK3). [Related pubchem assays: 746 ]
# [14] = Luminescence Cell-Based Dose-Confimation HTS to Identify Inhibitors of 5'UTR Stem-Loop Driven Alpha-Synuclein mRNA Translation in H4 Neuroglioblastoma Cells. [Related pubchem assays: 1827 (Project Summary), 1813 (Primary HTS)]; assay type: functional
# HEK293 = experiment: Fluorescence-based counterscreen for potentiators or agonists of NPY-Y2: cell-based high-throughput dose response assay to identify inhibitors of cyclic nucleotide gated ion channel (CNGC) activity. In this assay, the parental HEK293 cell line transfected with a cyclic-nucleotide gated ion channel (CNGC)-based cAMP sensor is used to measure inhibition of isoproterenol-induced CNGC activity by test compound.; assay type: functional; details: Homo sapiens;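 note: stimulus is 1 µM isoproterenol at EC100 plus PDE inhibitor Ro 20-1724 at 25 µM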
# [15] = biological target: Neuropeptide Y receptor type 1 (Homo sapiens, UniProt P25929); experiment: Fluorescence-based counterscreen for agonists of NPY-Y2: cell-based high-throughput dose response assay for agonists of NPY-Y1.; assay type: functional
# [16] = biological target: Neuropeptide Y receptor type 2 (Homo sapiens, UniProt P49146); experiment: Fluorescence-based cell-based high-throughput dose response assay for agonists of NPY-Y2. [Related pubchem assays: 1703 (Screening assay (CNGC inhibitors).), 1359 (Screening assay (NPY-Y2 potentiators or agonists).), 1304 (Screening assay (NPY-Y1 potentiators or agonists).), 1710 (Screening assay (NPY-Y2 agonists).), 1791 (Summary AID.)]; assay type: functional
# Sequence of Neuropeptide Y receptor type 2 (P49146 whole entry): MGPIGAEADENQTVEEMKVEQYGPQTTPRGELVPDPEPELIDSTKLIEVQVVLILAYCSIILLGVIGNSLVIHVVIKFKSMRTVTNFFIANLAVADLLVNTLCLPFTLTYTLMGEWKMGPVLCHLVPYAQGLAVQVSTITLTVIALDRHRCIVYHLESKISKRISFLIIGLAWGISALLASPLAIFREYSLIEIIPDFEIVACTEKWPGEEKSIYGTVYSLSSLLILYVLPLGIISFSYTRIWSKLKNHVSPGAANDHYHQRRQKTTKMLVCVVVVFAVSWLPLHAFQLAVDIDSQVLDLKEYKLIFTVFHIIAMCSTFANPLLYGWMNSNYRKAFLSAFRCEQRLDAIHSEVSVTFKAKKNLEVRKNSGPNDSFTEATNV
# Sequence of Peroxisome proliferator-activated receptor gamma/Nuclear receptor corepressor 2 (P37231 whole entry): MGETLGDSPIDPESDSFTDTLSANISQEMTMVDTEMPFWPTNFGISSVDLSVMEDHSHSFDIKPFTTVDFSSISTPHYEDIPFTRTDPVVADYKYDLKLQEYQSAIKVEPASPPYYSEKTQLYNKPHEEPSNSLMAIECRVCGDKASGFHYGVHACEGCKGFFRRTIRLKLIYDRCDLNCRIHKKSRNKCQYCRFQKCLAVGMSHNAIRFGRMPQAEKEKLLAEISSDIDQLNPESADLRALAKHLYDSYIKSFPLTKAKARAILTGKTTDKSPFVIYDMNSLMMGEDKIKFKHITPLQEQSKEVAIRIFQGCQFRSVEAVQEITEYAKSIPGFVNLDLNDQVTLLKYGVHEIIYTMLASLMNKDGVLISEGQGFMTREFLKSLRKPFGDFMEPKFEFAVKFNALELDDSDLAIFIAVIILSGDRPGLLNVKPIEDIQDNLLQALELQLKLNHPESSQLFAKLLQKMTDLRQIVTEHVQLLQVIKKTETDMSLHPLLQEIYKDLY
# Sequence of Peroxisome proliferator-activated receptor gamma/Nuclear receptor corepressor 2 (Q9Y618 whole entry): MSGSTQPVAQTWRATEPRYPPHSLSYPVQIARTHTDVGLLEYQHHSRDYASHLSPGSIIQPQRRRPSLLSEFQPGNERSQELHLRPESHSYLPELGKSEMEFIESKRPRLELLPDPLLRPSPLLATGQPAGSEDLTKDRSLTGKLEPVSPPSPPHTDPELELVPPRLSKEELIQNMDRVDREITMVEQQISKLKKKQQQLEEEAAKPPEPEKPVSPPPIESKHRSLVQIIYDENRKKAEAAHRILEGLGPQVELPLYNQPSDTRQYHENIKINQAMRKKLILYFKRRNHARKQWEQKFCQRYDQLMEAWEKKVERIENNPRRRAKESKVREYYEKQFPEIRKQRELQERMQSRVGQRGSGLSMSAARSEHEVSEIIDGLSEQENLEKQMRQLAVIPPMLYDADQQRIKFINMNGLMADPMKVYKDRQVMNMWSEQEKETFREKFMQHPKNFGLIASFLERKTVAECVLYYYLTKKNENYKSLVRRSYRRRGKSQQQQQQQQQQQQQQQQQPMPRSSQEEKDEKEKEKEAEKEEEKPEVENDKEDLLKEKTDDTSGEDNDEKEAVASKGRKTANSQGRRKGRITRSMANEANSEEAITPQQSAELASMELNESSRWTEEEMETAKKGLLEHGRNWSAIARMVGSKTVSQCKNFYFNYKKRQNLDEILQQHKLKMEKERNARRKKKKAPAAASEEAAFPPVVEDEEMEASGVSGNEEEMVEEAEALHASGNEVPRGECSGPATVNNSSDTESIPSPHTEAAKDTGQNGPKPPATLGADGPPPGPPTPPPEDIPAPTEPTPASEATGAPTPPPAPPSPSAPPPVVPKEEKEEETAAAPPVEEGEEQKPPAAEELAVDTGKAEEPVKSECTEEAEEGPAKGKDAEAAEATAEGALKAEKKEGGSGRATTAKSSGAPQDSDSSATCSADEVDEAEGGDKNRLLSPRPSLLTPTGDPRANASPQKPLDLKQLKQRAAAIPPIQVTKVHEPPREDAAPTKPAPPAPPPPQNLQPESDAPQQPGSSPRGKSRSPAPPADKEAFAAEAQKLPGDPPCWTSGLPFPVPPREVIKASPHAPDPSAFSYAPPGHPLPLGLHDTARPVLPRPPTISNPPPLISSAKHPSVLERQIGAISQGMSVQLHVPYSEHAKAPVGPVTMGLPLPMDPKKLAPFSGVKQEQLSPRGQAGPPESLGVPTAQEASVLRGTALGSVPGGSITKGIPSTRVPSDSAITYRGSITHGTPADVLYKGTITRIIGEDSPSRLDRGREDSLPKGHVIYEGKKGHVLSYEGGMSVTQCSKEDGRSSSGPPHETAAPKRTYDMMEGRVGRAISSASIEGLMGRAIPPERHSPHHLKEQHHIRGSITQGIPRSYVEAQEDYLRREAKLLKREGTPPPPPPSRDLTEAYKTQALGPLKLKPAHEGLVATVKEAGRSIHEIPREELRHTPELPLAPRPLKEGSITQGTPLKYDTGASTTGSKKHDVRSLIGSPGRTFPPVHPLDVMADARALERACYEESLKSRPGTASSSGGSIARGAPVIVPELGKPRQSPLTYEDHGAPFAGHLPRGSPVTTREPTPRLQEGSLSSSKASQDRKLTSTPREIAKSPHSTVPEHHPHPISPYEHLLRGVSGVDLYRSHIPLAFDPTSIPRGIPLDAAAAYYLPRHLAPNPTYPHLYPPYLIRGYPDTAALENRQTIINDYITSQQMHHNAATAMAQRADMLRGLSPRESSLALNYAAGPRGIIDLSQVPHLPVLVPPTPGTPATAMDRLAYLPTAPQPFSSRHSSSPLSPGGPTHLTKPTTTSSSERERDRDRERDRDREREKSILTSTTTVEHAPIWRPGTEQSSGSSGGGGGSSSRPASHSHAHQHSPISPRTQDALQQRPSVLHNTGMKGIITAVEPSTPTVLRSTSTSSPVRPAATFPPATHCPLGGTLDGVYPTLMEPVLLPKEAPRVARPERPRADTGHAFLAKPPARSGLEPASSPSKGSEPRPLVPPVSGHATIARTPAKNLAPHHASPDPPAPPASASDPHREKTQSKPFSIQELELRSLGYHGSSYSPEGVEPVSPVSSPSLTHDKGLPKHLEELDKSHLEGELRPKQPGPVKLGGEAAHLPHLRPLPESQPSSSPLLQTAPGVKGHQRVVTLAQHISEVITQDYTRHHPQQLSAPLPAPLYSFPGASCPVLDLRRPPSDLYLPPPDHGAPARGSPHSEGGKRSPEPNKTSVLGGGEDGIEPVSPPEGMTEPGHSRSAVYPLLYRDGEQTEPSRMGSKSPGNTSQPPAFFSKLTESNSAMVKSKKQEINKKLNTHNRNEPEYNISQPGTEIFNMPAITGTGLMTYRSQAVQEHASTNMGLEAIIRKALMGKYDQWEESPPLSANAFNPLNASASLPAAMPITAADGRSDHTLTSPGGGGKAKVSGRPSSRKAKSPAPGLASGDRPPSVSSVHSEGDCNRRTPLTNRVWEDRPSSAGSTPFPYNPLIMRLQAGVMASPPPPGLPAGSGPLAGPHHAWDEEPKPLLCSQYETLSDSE
# Sequence of Photoreceptor-specific nuclear receptor (Q9Y5X4 whole entry): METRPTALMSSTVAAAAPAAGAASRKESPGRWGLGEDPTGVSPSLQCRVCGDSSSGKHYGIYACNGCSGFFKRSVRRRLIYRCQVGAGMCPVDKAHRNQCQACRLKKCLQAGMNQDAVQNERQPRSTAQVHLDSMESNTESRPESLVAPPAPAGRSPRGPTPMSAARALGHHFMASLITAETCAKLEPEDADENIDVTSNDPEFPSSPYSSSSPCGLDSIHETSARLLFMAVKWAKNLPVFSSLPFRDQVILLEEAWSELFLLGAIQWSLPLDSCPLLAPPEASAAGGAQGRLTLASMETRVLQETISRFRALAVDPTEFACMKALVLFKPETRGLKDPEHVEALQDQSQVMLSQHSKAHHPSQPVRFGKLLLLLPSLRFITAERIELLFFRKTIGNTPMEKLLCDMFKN
# Sequence of NADPH oxidase 1 (Q9Y5S8 whole entry): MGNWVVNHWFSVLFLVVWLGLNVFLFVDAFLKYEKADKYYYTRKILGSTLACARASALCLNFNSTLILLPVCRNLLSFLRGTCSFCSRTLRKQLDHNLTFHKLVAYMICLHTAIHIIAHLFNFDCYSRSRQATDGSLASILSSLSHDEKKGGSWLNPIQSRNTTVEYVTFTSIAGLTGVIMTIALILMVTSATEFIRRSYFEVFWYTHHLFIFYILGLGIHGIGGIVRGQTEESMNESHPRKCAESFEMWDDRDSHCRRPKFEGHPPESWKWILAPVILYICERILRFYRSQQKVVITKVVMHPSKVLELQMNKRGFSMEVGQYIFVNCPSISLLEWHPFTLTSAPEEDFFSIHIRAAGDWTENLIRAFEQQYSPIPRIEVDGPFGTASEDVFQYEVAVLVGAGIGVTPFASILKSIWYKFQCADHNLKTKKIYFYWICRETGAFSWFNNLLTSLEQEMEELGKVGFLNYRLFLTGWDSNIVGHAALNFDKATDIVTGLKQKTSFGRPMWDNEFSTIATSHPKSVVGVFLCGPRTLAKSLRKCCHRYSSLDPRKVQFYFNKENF
# Sequence of Mitogen-activated protein kinase 10 (P53779 whole entry): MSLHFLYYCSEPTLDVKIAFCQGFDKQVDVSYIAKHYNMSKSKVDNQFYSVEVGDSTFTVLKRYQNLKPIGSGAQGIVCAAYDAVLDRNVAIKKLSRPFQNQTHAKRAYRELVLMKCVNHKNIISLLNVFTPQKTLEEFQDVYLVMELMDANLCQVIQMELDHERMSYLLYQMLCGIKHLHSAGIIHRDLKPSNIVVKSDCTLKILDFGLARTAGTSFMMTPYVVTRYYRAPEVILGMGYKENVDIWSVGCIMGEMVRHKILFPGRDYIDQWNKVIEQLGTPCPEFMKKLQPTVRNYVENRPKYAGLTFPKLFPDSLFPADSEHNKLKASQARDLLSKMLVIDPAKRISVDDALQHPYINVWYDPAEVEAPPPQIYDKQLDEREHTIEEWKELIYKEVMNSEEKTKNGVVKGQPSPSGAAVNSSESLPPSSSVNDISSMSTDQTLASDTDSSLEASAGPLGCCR
structure (smiles),measurement,setting,value
COc1ccc(NC(=O)N2CCCCN3[C@H](CO)[C@@H](c4ccc(-c5ccccc5F)cc4)[C@H]3C2)cc1,AC50,[1],1.81 µM (active)
Cc1nnc(SCc2ccc(Cl)cc2)nc1/C=C/N(C)C,EC50,[2],660 nM (active)
same,EC50,Transthyretin,> 167 µM (inactive)
same,EC50,[3],> 60 µM (not active)
O=C(c1ccco1)N(CCC(c1ccccc1)c1ccco1)Cc1ccc(F)cc1 (centres undefined),CC50,[4],> 40 µM (active)
COc1cc(/C=C2\SC(=O)N(Cc3ccc(F)cc3)C2=O)cc([N+](=O)[O-])c1O,IC50,[5],7.65 µM (active)
same,IC50,[6],45.6 µM (active)
COc1ccccc1/C=N/NC(=O)NC12CC3CC(CC(C3)C1)C2,CC50,[7],> 40 µM (active)
same,IC50,[8],> 100 µM (active)
Cc1ccc(-n2c(C)cc(C=C3C(=O)CC(C)(C)CC3=O)c2C)cc1,EC50,[9],17.4 µM (not active)
O=C(Nc1ccccc1)Nc1nc(-c2ccccc2)cs1,IC50,NADPH oxidase 1,> 17 µM (not active)
COc1cccc2sc(NC(=O)c3ccc(Br)s3)nc12,IC50,[10],2.95 µM (active)
same,IC50,[11],3.41 µM (active)
same,EC50,[12],> 32 µM (inactive)
Cc1oc2ccc(OCC(N)=O)cc2c1C(=O)OC(C)C,IC50,[13],44.9 µM (not active)
Nc1nc(CSc2nnnn2-c2ccccc2)nc(Nc2ccccc2)n1,EC50,[14],15.5 µM (active)
c1ccc(CSc2nc3c[nH]cnc-3n2)cc1,EC50,HEK293,> 35.4 µM (not active)
same,EC50,[15],> 35.4 µM (not active)
same,EC50,[16],> 35.4 µM (not active)
